The target of the assay is Rho-associated protein kinase 2 (Homo sapiens, UniProt O75116). Briefly: Biological Assay: The kinase IC50 was determined by a commercialized CISBIO kinase detection kit, HTRF KinEASE-STK S2 kit (62ST2PEC). ROCK2 (01-119) employed in the reaction was purchased from Carna Biosciences.Before the assay, the following working solutions as needed were formulated with corresponding reagents according to the instruction of the kinase detection kit: 1×kinase buffer, 5×STK-52 substrate working solution (1.5 μM) and 5×ATP working solution (1.5 μM), 5×ROCK2 kinase working solution, 4×Streptavidin-XL665 working solution, and 4×STK-Ab-Cryptate 2 detection solution. Then the assay was performed according to the following procedure.A solution of a compound at a concentration of 10000 nM was prepared with the 1×kinase buffer containing 2.5% DMSO. Gradient dilution of the solution of the compound was performed with the kinase buffer containing DMSO, so as to obtain solutions of a test compound at 9 different concentrations. In addition to wells of test compounds, a positive well (containing all the reagents except the compound) and a negative well (containing all the reagents except the test compound and kinase) were set. Except for the control wells (positive and negative wells), a solution of a test compound (4 μL) was added to each of the reaction wells, and a solution of 2.5% DMSO was added to the control wells. […].
Chain of Rho-associated protein kinase 2 (O75116 whole entry): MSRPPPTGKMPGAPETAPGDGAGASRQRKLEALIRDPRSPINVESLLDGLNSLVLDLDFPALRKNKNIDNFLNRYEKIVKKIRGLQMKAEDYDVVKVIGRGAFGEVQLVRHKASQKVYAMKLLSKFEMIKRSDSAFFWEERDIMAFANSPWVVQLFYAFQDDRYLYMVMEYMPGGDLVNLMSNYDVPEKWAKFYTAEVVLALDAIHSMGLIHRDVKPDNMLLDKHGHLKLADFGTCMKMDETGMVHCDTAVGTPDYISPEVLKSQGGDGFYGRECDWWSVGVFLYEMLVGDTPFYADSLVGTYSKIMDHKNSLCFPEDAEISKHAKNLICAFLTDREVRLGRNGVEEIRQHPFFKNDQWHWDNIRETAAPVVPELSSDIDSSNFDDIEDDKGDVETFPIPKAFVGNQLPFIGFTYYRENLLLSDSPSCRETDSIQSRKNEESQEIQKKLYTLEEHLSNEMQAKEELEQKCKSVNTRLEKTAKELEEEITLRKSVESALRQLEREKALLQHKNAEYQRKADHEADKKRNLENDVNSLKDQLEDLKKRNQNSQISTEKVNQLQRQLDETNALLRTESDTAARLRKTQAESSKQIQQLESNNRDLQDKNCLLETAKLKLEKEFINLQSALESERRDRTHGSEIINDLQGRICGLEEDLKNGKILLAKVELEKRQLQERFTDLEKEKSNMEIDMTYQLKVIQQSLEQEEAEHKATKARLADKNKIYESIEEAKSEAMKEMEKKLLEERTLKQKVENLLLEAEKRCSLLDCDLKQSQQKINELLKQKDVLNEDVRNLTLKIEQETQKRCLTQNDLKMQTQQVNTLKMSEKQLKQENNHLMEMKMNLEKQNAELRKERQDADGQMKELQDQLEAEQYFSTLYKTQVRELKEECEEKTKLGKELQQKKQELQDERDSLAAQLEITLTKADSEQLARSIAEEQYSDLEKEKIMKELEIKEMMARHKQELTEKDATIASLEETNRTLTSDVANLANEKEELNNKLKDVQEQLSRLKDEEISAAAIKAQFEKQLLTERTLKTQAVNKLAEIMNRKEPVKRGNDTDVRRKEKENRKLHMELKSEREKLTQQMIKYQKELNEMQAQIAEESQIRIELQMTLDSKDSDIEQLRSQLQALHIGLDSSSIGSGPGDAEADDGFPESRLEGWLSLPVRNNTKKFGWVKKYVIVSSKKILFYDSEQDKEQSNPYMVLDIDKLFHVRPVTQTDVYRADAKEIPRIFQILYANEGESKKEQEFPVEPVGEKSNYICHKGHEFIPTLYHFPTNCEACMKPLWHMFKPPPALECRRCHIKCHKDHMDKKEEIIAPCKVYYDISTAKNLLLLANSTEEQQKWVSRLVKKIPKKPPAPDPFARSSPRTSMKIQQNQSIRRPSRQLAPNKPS

For the compound `O=C(Nc1ccc(-c2cn[nH]c2)cc1)c1cc2ccc(-c3nccc(Nc4ccc5[nH]ncc5c4)n3)cc2[nH]1`, the midpoint of inhibition, the IC50, lay at 0.071 µM.

For the origin of these results see ChEMBL document CHEMBL5727158, “Rho-associated protein kinase inhibitor, pharmaceutical composition comprising the same, as well as preparation method and use thereof” (2019).
